Experiments:
[1] = target: Human cGAS amino acids 155-522 (Homo sapiens (Human), UniProt Q8N884); assay: cGAS biochemical activity assay (ATP remaining, Kinase-Glo Max luminescence); conditions: human cGAS 155-522, ATP remaining (Kinase-Glo Max); read-out: cGAS IC50
[2] = test system: cGAS/STING pathway in THP1 cells; assay: THP1 cell-based cGAS/STING pathway activity assay (IRF-3-linked luciferase reporter); conditions: Homo sapiens, THP-1
From the text: A cellular assay can be used to assess the compounds of the invention for their ability to inhibit the cGAS/STING pathway. Cells that express a luciferase-based reporter that is linked to IRF-3 activation are used to determine response as a function of compound concentration. Such an assay is described in Vincent et al., Nature Communications 2017, 8(1):750, doi: 10.1038/s41467-017-00833-9.
A cellular assay can be used to assess the compounds of the invention for their ability to inhibit the cGAS/STING pathway. Cells that express a luciferase-based reporter that is linked to IRF-3 activation are used to determine response as a function of compound concentration. Such an assay is described in Vincent et al., Nature Communications 2017, 8(1):750, doi: 10.1038/s41467-017-00833-9. Compounds of the invention were assessed using similar assay methods in a THP1 cell assay to generate IC50 values as provided in the following Table 16. In this table, activity level “A” indicates an IC50 value less than 20 μM, “B” indicates an IC50 value between 20 and 100 μM, and “C” indicates an IC50 value above the upper limit of the assay (100 μM), or where an IC50 value could not be generated from the data.

Human cGAS amino acids 155-522, sequence (Q8N884 157-522): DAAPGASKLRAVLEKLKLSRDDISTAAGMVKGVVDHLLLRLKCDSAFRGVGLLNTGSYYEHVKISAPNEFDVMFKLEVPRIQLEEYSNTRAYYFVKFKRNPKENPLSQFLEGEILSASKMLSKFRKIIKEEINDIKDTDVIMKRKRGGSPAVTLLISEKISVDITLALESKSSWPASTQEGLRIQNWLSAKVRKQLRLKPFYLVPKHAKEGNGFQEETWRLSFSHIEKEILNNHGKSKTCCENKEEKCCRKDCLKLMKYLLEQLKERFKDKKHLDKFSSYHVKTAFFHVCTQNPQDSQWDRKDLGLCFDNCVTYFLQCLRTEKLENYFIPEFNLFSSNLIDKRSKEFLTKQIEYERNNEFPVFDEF

SMILES	IC50 [1] [µM]	IC50 [2] [µM]
Cc1[nH]c2c(-c3ccccc3)c(C(F)(F)F)nn2c(=O)c1-c1nnc(C2CCCOC2)o1 (stereo not shown) [Compound D1015, 5-methyl-3-phenyl-6-(5-(tetrahydro-2H-pyran-3-yl)-1,3,4-oxadiazol-2-yl)-2-(trifluoromethyl)pyrazolo[1,5-a]pyrimidin-7(4H)-one]	20 to 250	> 100
COc1cccc2oc(-c3c(C(=O)NCc4cc[nH]n4)[nH]c4c(-c5ccccc5)c(C(F)(F)F)nn4c3=O)nc12 [Compound C1245, N-((1H-pyrazol-3-yl)methyl)-6-(4-methoxybenzo[d]oxazol-2-yl)-7-oxo-3-phenyl-2-(trifluoromethyl)-4,7-dihydropyrazolo[1,5-a]pyrimidine-5-carboxamide]	< 20	> 100
COc1cccc(CS(=O)(=O)NC(=O)c2c(C)[nH]c3c(-c4ccccc4)c(C(F)(F)F)nn3c2=O)c1 [Compound A1132, N-((3-methoxybenzyl)sulfonyl)-5-methyl-7-oxo-3-phenyl-2-(trifluoromethyl)-4,7-dihydropyrazolo[1,5-a]pyrimidine-6-carboxamide]	< 20	20 to 100
Cc1[nH]c2c(-c3ccccc3)c(C(F)(F)F)nn2c(=O)c1-c1nnc(-c2cccc(O)n2)o1 [Compound D1086, 6-(5-(6-hydroxypyridin-2-yl)-1,3,4-oxadiazol-2-yl)-5-methyl-3-phenyl-2-(trifluoromethyl)pyrazolo[1,5-a]pyrimidin-7(4H)-one]	< 20	> 100
COc1cccc2oc(-c3c(C4CC(C(=O)O)C4)[nH]c4c(-c5ccccc5)c(C(F)(F)F)nn4c3=O)nc12 (stereo not shown) [Compound C1252, 3-(6-(4-methoxybenzo[d]oxazol-2-yl)-7-oxo-3-phenyl-2-(trifluoromethyl)-4,7-dihydropyrazolo[1,5-a]pyrimidin-5-yl)cyclobutane-1-carboxylic acid]	< 20	> 100
Cc1[nH]c2c(-c3ccccc3)c(C(F)(F)F)nn2c(=O)c1C(=O)Nc1cccnc1S(C)(=O)=O [Compound A1096, 5-methyl-N-(2-(methylsulfonyl)pyridin-3-yl)-7-oxo-3-phenyl-2-(trifluoromethyl)-4,7-dihydropyrazolo[1,5-a]pyrimidine-6-carboxamide]	< 20	20 to 100
Cc1[nH]c2c(-c3ccccc3)c(C(F)(F)F)nn2c(=O)c1-c1nc2c(C#N)cccc2o1 [Compound C1075, 2-(5-methyl-7-oxo-3-phenyl-2-(trifluoromethyl)-4,7-dihydropyrazolo[1,5-a]pyrimidin-6-yl)benzo[d]oxazole-4-carbonitrile]	< 20	> 100
CC(=O)N1CCCC(c2nnc(-c3c(C)[nH]c4c(-c5ccccc5)c(C(F)(F)F)nn4c3=O)o2)C1 (stereo not shown) [Compound D1041, 6-(5-(1-acetylpiperidin-3-yl)-1,3,4-oxadiazol-2-yl)-5-methyl-3-phenyl-2-(trifluoromethyl)pyrazolo[1,5-a]pyrimidin-7(4H)-one]	20 to 250	> 100
Cc1[nH]c2c(-c3ccccc3)c(C(F)(F)F)nn2c(=O)c1-c1ncc(C2CCCC2)o1 [Compound C1010, 6-(5-cyclopentyloxazol-2-yl)-5-methyl-3-phenyl-2-(trifluoromethyl)pyrazolo[1,5-a]pyrimidin-7(4H)-one]	> 250	< 20
Cc1[nH]c2c(-c3ccccc3)c(C(F)(F)F)nn2c(=O)c1C(=O)Nc1ccn(CCO)n1 [Compound A1118, N-(1-(2-hydroxyethyl)-1H-pyrazol-3-yl)-5-methyl-7-oxo-3-phenyl-2-(trifluoromethyl)-4,7-dihydropyrazolo[1,5-a]pyrimidine-6-carboxamide]	20 to 250	> 100
Cc1[nH]c2c(-c3ccccc3)c(C(F)(F)F)nn2c(=O)c1-c1nc2c(o1)CCCC2 [Compound C1015, 5-methyl-3-phenyl-6-(4,5,6,7-tetrahydrobenzo[d]oxazol-2-yl)-2-(trifluoromethyl)pyrazolo[1,5-a]pyrimidin-7(4H)-one]	> 250	< 20
Cc1[nH]c2c(-c3ccccc3)c(C(F)(F)F)nn2c(=O)c1-c1nc2ccccc2c(=O)[nH]1 [Compound C1019, 2-(5-methyl-7-oxo-3-phenyl-2-(trifluoromethyl)-4,7-dihydropyrazolo[1,5-a]pyrimidin-6-yl)quinazolin-4(3H)-one]	< 20	20 to 100
COc1cccc2oc(-c3c(COC4CCNC4=O)[nH]c4c(-c5ccccc5)c(C(F)(F)F)nn4c3=O)nc12 (stereo not shown) [Compound C1159, 6-(4-methoxybenzo[d]oxazol-2-yl)-5-(((2-oxopyrrolidin-3-yl)oxy)methyl)-3-phenyl-2-(trifluoromethyl)pyrazolo[1,5-a]pyrimidin-7(4H)-one]	< 20	> 100
Cc1[nH]c2c(-c3ccccc3)c(C(F)(F)F)nn2c(=O)c1C(=O)Nc1nc(C(C)C)co1 [Compound A1048, N-(4-isopropyloxazol-2-yl)-5-methyl-7-oxo-3-phenyl-2-(trifluoromethyl)-4,7-dihydropyrazolo[1,5-a]pyrimidine-6-carboxamide]	20 to 250	20 to 100
Cc1[nH]c2c(-c3ccccc3)c(C(F)(F)F)nn2c(=O)c1C(=O)Nc1cn[nH]c1 [Compound A1068, 5-methyl-7-oxo-3-phenyl-N-(1H-pyrazol-4-yl)-2-(trifluoromethyl)-4,7-dihydropyrazolo[1,5-a]pyrimidine-6-carboxamide]	20 to 250	> 100
Cc1nn2c(=O)c(-c3nc4c(o3)CCCC4)c(C)[nH]c2c1-c1ccccc1 [Compound C1032, 2,5-dimethyl-3-phenyl-6-(4,5,6,7-tetrahydrobenzo[d]oxazol-2-yl)pyrazolo[1,5-a]pyrimidin-7(4H)-one]	< 20	20 to 100
Cc1[nH]c2c(C(C)C)c(C(F)(F)F)nn2c(=O)c1-c1ccccc1 [Compound C1269, 3-isopropyl-5-methyl-6-phenyl-2-(trifluoromethyl)pyrazolo[1,5-a]pyrimidin-7(4H)-one]	> 250	20 to 100
CC(=O)NCCOc1cccc2oc(-c3c(C)[nH]c4c(-c5ccccc5)c(C(F)(F)F)nn4c3=O)nc12 [Compound C1062, N-(2-((2-(5-methyl-7-oxo-3-phenyl-2-(trifluoromethyl)-4,7-dihydropyrazolo[1,5-a]pyrimidin-6-yl)benzo[d]oxazol-4-yl)oxy)ethyl)acetamide]	< 20	> 100
COc1cccc2oc(-c3c(COCC4CNC(=O)O4)[nH]c4c(-c5ccccc5)c(C(F)(F)F)nn4c3=O)nc12 (stereo not shown) [Compound C1177, 5-(((6-(4-methoxybenzo[d]oxazol-2-yl)-7-oxo-3-phenyl-2-(trifluoromethyl)-4,7-dihydropyrazolo[1,5-a]pyrimidin-5-yl)methoxy)methyl)oxazolidin-2-one]	< 20	20 to 100
Cc1[nH]c2c(-c3ccccc3)c(C(F)(F)F)nn2c(=O)c1-c1nc2ccccc2[nH]1 [Compound C1005, 6-(1H-benzo[d]imidazol-2-yl)-5-methyl-3-phenyl-2-(trifluoromethyl)pyrazolo[1,5-a]pyrimidin-7(4H)-one]	20 to 250	> 100
COc1ccc(NC(=O)c2c(C)[nH]c3c(-c4ccccc4)c(C(F)(F)F)nn3c2=O)nn1 [Compound A1110, N-(6-methoxypyridazin-3-yl)-5-methyl-7-oxo-3-phenyl-2-(trifluoromethyl)-4,7-dihydropyrazolo[1,5-a]pyrimidine-6-carboxamide]	< 20	> 100
Cc1[nH]c2c(-c3ccccc3)c(C(F)(F)F)nn2c(=O)c1-c1nnc(N2CCCCC2CN)o1 (stereo not shown) [Compound D1070, 6-(5-(2-(aminomethyl)piperidin-1-yl)-1,3,4-oxadiazol-2-yl)-5-methyl-3-phenyl-2-(trifluoromethyl)pyrazolo[1,5-a]pyrimidin-7(4H)-one]	< 20	> 100
Cc1[nH]c2c(-c3ccccc3)c(C(F)(F)F)nn2c(=O)c1C1=NC(C(=O)O)[C@H](C)O1 (stereo partly drawn) [Compound C1216, (5S)-5-methyl-2-(5-methyl-7-oxo-3-phenyl-2-(trifluoromethyl)-4,7-dihydropyrazolo[1,5-a]pyrimidin-6-yl)-4,5-dihydrooxazole-4-carboxylic acid]	< 20	> 100
COc1cccc2nc(-c3c(C)[nH]c4c(-c5ccccc5)c(C(F)(F)F)nn4c3=O)[nH]c(=O)c12 [Compound C1024, 5-methoxy-2-(5-methyl-7-oxo-3-phenyl-2-(trifluoromethyl)-4,7-dihydropyrazolo[1,5-a]pyrimidin-6-yl)quinazolin-4(3H)-one]	< 20	20 to 100
COc1nc(N)nc2oc(-c3c(C)[nH]c4c(-c5ccccc5)c(C(F)(F)F)nn4c3=O)nc12 [Compound C1174, 6-(5-amino-7-methoxyoxazolo[5,4-d]pyrimidin-2-yl)-5-methyl-3-phenyl-2-(trifluoromethyl)pyrazolo[1,5-a]pyrimidin-7(4H)-one]	< 20	> 100
COCCOc1cccc2oc(-c3c(C)[nH]c4c(-c5ccccc5)c(C(F)(F)F)nn4c3=O)nc12 [Compound C1041, 6-(4-(2-methoxyethoxy)benzo[d]oxazol-2-yl)-5-methyl-3-phenyl-2-(trifluoromethyl)pyrazolo[1,5-a]pyrimidin-7(4H)-one]	< 20	< 20
